Earlier results on 1 compound are cited in patent US5468499A, “Liposomes containing the salt of phosphoramide mustard and related compounds” (Ohio State University, priority 1993, dated 1995).

Each structure is given as a SMILES string.

The test system of this data set is tumor.

As for `O=P1(N(CCCl)CCCl)NCCCO1` (stereo not shown) [cyclophosphamide], the “tumoricidal activity of the drug itself” value was “not directly tumoricidal”.
